Where a name gives a salt, the structure may show the parent alone.
Columns and labels:
solubility in water = assay type: physicochemical
Sprague-Dawley male,rats = experiment: yeast induced hyperpyrexy test (antipyretic activity); assay type: in vivo; conditions: Rattus norvegicus, tested dosages 100, 200 and 400 mg/kg
Description: This test has been carried out in the manner known from the literature in Sprague-Dawley male,rats, having a body weight of 190-220g, which were selected according to the rectal temperature which was of between 37.0 and 37.7°C.
The hyperpyrexy was induced by subcutaneous injection of 2.0 ml of a 7.5% suspension of yeast as prepared at the moment.
The tested dosages were 100, 200 and 400 mg/kg and the found ED33 value was 802 mg/kg.

Swiss male albine mice = experiment: acetic acid induced stretching or writhing inhibition test (analgesic activity); assay type: in vivo
Description: This test was carried out in Swiss male albine mice, having a body weight of 30-40 g through the "stretching or writhing" inhibition test, as induced by acetic acid, the test being carried out in a manner per se known from the literature.

[1] = system: Sprague-Dawaley male rats; experiment: carrageenin induced oedema test (anti-inflammatory activity); assay type: in vivo; conditions: for ED33: Rattus norvegicus, carrageenin oedema inhibition
Description: This activity has been evaluated for the NXTP compound by the carrageenin induced oedema test, carried out in the manner known in the literature, in Sprague-Dawaley male rats, having a body weight of 180-200 g, the NXTP being administered to groups of 3 animals each at the dosages of 50, 100, 200 and 400 mg/kg, the results
being evalutaed in comparison with a control group.
Since in no caso an inhibition rate of 50% was attained, the value of ED 33 was calculated, it being 759 rng/kg (0,651 mM/kg).

[2] = mucolithic activity: viscosity of expectorate; conditions: 0.05M, one hour incubation at 37°C
Description: This test was carried out, in the manner known from the literature, in 13 ml samples of expectorate collected from hospitalized patients, and stored in a freezer at -20°C until the testing time.
At the tested concentration of the compound undergoing the experiment (0.05M) a viscosity reduction of 16% (29% to 13%) was found. ^7

solubility in water (solubility in water)	pH (solubility in water; pH of the product dissolved in water)	Compound	ED33 (Sprague-Dawley male,rats) [mg/kg]	ED50 (Swiss male albine mice; Mus musculus, sc, inhibition of contorsions induced by acetic acid, subcutaneous route, tested doses 50, 100 and 200 mg/kg) [mg/kg]	inhibition of the number of contorsions (dose dependence) (Swiss male albine mice; doses 50, 100 and 200 mg/kg by subcutaneous route)	ED33 ([1]; same value in molar unit) [µmol/kg]	ED33 ([1]; tested dosages 50, 100, 200 and 400 mg/kg, calculated because 50% inhibition was not attained) [mg/kg]	oedema inhibition (dose dependence) ([1]; dosages 50, 100, 200 and 400 mg/kg, versus control group)	inhibition rate ([1]; oedema inhibition at 50, 100, 200 and 400 mg/kg, 50% attained in no case) [%]	viscosity reduction (net of the 13% reduction with physiological solution) [2] [%]	viscosity reduction (total) [2] [%]
perfectly soluble in water	–	COc1ccc2cc(C(C)C(=O)SC(C)C(=O)NCC(=O)O)ccc2c1 (single isomer, unassigned) [L(+)-lysine salt of the DL-2-(6-methoxy-2-napthyl)-alpha- th] [L(+)lysine salt of DL-2-(6-methoxy-2-napthyl)-propionyl-alpha-thio-propionylglycine acid]	–	–	–	–	–	–	–	–	–
–	–	COc1ccc2cc(C(C)C(=O)SC(C)C(=O)NCC(=O)O)ccc2c1 (racemic) [NXTP, propionylerytrhomycin salt of DL-2-(6-methoxy-2-napthyl)-propionyl-alpha-thio-propionylglycine]	802	400	in a rate proportional to the administered doses	651	759	causes the oedema to be inhibited proportionally to the administered dose	< 50	16	29
soluble in water	7.3	COc1ccc2cc(C(C)C(=O)SC(C)C(=O)NCC(=O)O)ccc2c1 (single isomer, unassigned) [arginine crystalline product, Arginine salt of DL-2-(6-methoxy-2-napthyl)propionyl-alpha-thio-propionylglycine]	–	–	–	–	–	–	–	–	–

From patent publication EP0124925A1, “Derivatives of d-2-(6-methoxy-2-naphthyl)-propionic acid having therapeutical activity, process for their preparation and pharmaceutical compositions containing them” (FARMA RESA SrL, priority 1983, dated 1984)
